The values below come from patent US20260297080A1, “BICYCLIC COMPOUNDS AS CDK INHIBITORS” (BeOne Medicines I GmbH, priority 2022, published 2026).

The target of experiment [1] is CDK2/Cyclin E1 (Homo sapiens, UniProt P24941). The experiment is described as follows: CDK2/Cyclin E1 Biochemical Assay (TR-FRET), 0.060 mM ATP. The note with it: 0.15 μM Rb (Ser780)-biotin substrate, pH7.0, 60 min preincubation, 120 min reaction, room temperature. The procedure, abridged: (§1)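 TR-FRET readout: 665/620 nm ratio from Eu-cryptate anti-pRb(Ser780) antibody plus streptavidin-XL665, converted to % inhibition and fitted (4-parameter logistic) for IC50. Reactions used 0.15 μM biotinylated Rb (Ser780) substrate, compound 0–10 μM, 60 min enzyme–compound preincubation, then 120 min reaction at room temperature.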
(In TR-FRET formats the signal depends on donor and acceptor labels being close together.)

For experiment [2], the target named is CDK1/Cyclin B1 (Homo sapiens, UniProt P06493). The experiment can be described thus: CDK1/Cyclin B1 Biochemical Assay (TR-FRET), 0.015 mM ATP. Particulars: 0.15 μM Rb (Ser780)-biotin substrate, pH7.0, 60 min preincubation, 120 min reaction, room temperature. The method in brief: as §1
Sequence of CDK1/Cyclin B1 (P06493 whole entry): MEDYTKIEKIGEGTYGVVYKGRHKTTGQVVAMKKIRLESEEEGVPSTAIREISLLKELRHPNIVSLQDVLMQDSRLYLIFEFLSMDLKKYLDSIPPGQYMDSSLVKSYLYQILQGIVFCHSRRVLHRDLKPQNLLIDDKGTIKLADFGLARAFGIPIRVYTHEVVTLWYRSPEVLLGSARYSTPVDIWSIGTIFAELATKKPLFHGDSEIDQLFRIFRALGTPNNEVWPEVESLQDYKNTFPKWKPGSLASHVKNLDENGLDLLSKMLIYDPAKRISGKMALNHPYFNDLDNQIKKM
Sequence of CDK1/Cyclin B1 (P14635 whole entry partner): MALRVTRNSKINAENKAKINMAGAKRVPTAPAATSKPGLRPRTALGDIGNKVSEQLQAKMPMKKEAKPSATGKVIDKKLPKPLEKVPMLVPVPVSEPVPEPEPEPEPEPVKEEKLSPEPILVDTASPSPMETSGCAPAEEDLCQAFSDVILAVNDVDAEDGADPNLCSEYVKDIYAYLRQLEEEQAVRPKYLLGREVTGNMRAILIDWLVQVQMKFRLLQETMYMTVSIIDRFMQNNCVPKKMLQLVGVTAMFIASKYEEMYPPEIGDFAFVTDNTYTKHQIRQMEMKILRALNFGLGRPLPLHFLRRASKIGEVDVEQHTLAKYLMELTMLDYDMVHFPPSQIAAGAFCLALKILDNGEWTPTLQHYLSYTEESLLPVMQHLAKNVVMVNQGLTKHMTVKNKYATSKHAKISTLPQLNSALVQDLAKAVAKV

What is called IC50 is the concentration needed to halve the response being measured. A low value points to inhibition by little substance. As to `CC(CC(F)(F)F)NC(=O)O[C@H]1CC[C@@H](c2cc(Nc3ccc4c(c3)CS(=O)(=O)N4C)n[nH]2)C1` (relative stereo) [Example 229, cis-3-(3-((1-methyl-2,2-dioxido-1,3-dihydrobenzo[c]isothiazol-5-yl)amino)-1H-pyrazol-5-yl)cyclopentyl(4,4,4-trifluorobutan-2-yl)carbamate], the IC50 in experiment [1] is 6.4 nM; in experiment [2], 30 nM.

Take `CN1c2ccc(Nc3cc([C@@H]4CC[C@H](OC(=O)NCCC(F)(F)F)C4)[nH]n3)cc2CS1(=O)=O` (relative stereo) [Example 230, cis-3-(3-((1-methyl-2,2-dioxido-1,3-dihydrobenzo[c]isothiazol-5-yl)amino)-1H-pyrazol-5-yl)cyclopentyl(3,3,3-trifluoropropyl)carbamate]: the IC50 in experiment [1] was 9.8 nM; in experiment [2], 78 nM.

For the compound `CN1c2ccc(Nc3cc([C@@H]4CC[C@H](OC(=O)NC56CC(C5)C6)C4)[nH]n3)cc2CS1(=O)=O` (relative stereo) [Example 231, cis-3-(3-((1-methyl-2,2-dioxido-1,3-dihydrobenzo[c]isothiazol-5-yl)amino)-1H-pyrazol-5-yl)cyclopentyl bicyclo[1.1.1]pentan-1-ylcarbamate], the figures for the IC50 in experiment [1] and in experiment [2] were 1.5 nM and 13 nM, respectively.

For `CC1(NC(=O)O[C@H]2CC[C@@H](c3cc(Nc4ccc5c(c4)CS(=O)(=O)N5)n[nH]3)C2)CC1` (relative stereo) [Example 232, cis-3-(3-((2,2-dioxido-1,3-dihydrobenzo[c]isothiazol-5-yl)amino)-1H-pyrazol-5-yl)cyclopentyl(1-methylcyclopropyl)carbamate], the IC50 in experiment [1] is 12 nM; in experiment [2] it was 27 nM.

Turning to `CN1c2ccc(Nc3cc([C@@H]4CC[C@H](OC(=O)NC5(C)CCC5)C4)[nH]n3)cc2CS1(=O)=O` (relative stereo) [Example 233, cis-3-(3-((1-methyl-2,2-dioxido-1,3-dihydrobenzo[c]isothiazol-5-yl)amino)-1H-pyrazol-5-yl)cyclopentyl(1-methylcyclobutyl)carbamate], the IC50 came out at 1.3 nM in experiment [1] and 10 nM in experiment [2].

Consider `CN1c2ccc(Nc3cc([C@@H]4CC[C@H](OC(=O)NC5(C)COC5)C4)[nH]n3)cc2CS1(=O)=O` (relative stereo) [Example 234, cis-3-(3-((1-methyl-2,2-dioxido-1,3-dihydrobenzo[c]isothiazol-5-yl)amino)-1H-pyrazol-5-yl)cyclopentyl(3-methyloxetan-3-yl)carbamate], for which the figures for the IC50 in experiment [1] and in experiment [2] were 4.2 nM and 67 nM, respectively.

In the case of `CC(NC(=O)O[C@H]1CC[C@@H](c2cc(Nc3ccc4c(c3)CS(=O)(=O)N4C)n[nH]2)C1)C1COC1` (relative stereo) [Example 235, cis-3-(3-((1-methyl-2,2-dioxido-1,3-dihydrobenzo[c]isothiazol-5-yl)amino)-1H-pyrazol-5-yl)cyclopentyl(1-(oxetan-3-yl)ethyl)carbamate], the IC50 in experiment [1] amounted to 12 nM; in experiment [2], 232 nM.

For the compound `CN1c2ccc(Nc3cc([C@@H]4CC[C@H](OC(=O)NC5COC5)C4)[nH]n3)cc2CS1(=O)=O` (relative stereo) [Example 236, cis-3-(3-((1-methyl-2,2-dioxido-1,3-dihydrobenzo[c]isothiazol-5-yl)amino)-1H-pyrazol-5-yl)cyclopentyl oxetan-3-ylcarbamate], the results for the concentration for half-maximal inhibition (IC50) in experiment [1] and in experiment [2] were 47 nM and 320 nM, respectively.

On to `CN1c2ccc(Nc3cc([C@@H]4CC[C@H](OC(=O)NCC5COC5)C4)[nH]n3)cc2CS1(=O)=O` (relative stereo) [Example 237, cis-3-(3-((1-methyl-2,2-dioxido-1,3-dihydrobenzo[c]isothiazol-5-yl)amino)-1H-pyrazol-5-yl)cyclopentyl(oxetan-3-ylmethyl)carbamate], for which the results for the IC50 in experiment [1] and in experiment [2] were 46 nM and 435 nM, respectively.

Take `CN1c2ccc(Nc3cc([C@@H]4CC[C@H](OC(=O)NCC(C)(C)O)C4)[nH]n3)cc2CS1(=O)=O` (relative stereo) [Example 238, cis-3-(3-((1-methyl-2,2-dioxido-1,3-dihydrobenzo[c]isothiazol-5-yl)amino)-1H-pyrazol-5-yl)cyclopentyl(2-hydroxy-2-methylpropyl)carbamate]: the results for the concentration for half-maximal inhibition (IC50) in experiment [1] and in experiment [2] were 16 nM and 153 nM, respectively.

As to `CN1c2ccc(Nc3cc([C@@H]4CC[C@H](OC(=O)NC5(C)CCOC5)C4)[nH]n3)cc2CS1(=O)=O` (relative stereo) [Example 239, cis-3-(3-((1-methyl-2,2-dioxido-1,3-dihydrobenzo[c]isothiazol-5-yl)amino)-1H-pyrazol-5-yl)cyclopentyl(3-methyltetrahydrofuran-3-yl)carbamate], the IC50 stood at 9.6 nM in experiment [1] and 158 nM in experiment [2].

On to `Cc1c(Nc2cc([C@@H]3CC[C@H](OC(=O)NC(C)C)C3)[nH]n2)ccc2c1CS(=O)(=O)N2` (relative stereo) [Example 240, cis-3-(3-((4-methyl-2,2-dioxido-1,3-dihydrobenzo[c]isothiazol-5-yl)amino)-1H-pyrazol-5-yl)cyclopentyl isopropylcarbamate], for which the IC50 in experiment [1] amounted to 3 nM; in experiment [2] it was 28 nM.

`Cc1cc2c(cc1Nc1cc([C@@H]3CC[C@H](OC(=O)NC(C)C)C3)[nH]n1)CS(=O)(=O)N2` (relative stereo) [Example 241, 3-(3-((6-methyl-2,2-dioxido-1,3-dihydrobenzo[c]isothiazol-5-yl)amino)-1H-pyrazol-5-yl)cyclopentyl isopropylcarbamate]: the figures for the IC50 in experiment [1] and in experiment [2] were 128 nM and 4470 nM, respectively.

As to `Cc1cc(Nc2cc([C@@H]3CC[C@H](OC(=O)NC(C)C)C3)[nH]n2)cc2c1NS(=O)(=O)C2` (relative stereo) [Example 242, cis-3-(3-((7-methyl-2,2-dioxido-1,3-dihydrobenzo[c]isothiazol-5-yl)amino)-1H-pyrazol-5-yl)cyclopentyl isopropylcarbamate], the IC50 in experiment [1] turned out to be 5.1 nM; in experiment [2] it was 70 nM.

Turning to `Cc1c(Nc2cc([C@@H]3CC[C@H](OC(=O)NC(C)C)C3)[nH]n2)ccc2c1CS(=O)(=O)N2C` (relative stereo) [Example 243, cis-3-(3-((1,4-dimethyl-2,2-dioxido-1,3-dihydrobenzo[c]isothiazol-5-yl)amino)-1H-pyrazol-5-yl)cyclopentyl isopropylcarbamate], the IC50 amounted to 37 nM in experiment [1] and 978 nM in experiment [2].

As to `Cc1cc2c(cc1Nc1cc([C@@H]3CC[C@H](OC(=O)NC(C)C)C3)[nH]n1)CS(=O)(=O)N2C` (relative stereo) [Example 244, cis-3-(3-((1,6-dimethyl-2,2-dioxido-1,3-dihydrobenzo[c]isothiazol-5-yl)amino)-1H-pyrazol-5-yl)cyclopentyl isopropylcarbamate], the IC50 in experiment [1] was determined as 1060 nM; in experiment [2], 7260 nM.

For the compound `Cc1cc(Nc2cc([C@@H]3CC[C@H](OC(=O)NC(C)C)C3)[nH]n2)cc2c1N(C)S(=O)(=O)C2` (relative stereo) [Example 245, cis-3-(3-((1,7-dimethyl-2,2-dioxido-1,3-dihydrobenzo[c]isothiazol-5-yl)amino)-1H-pyrazol-5-yl)cyclopentyl isopropylcarbamate], the IC50 in experiment [1] worked out at 44 nM; in experiment [2] it was 941 nM.

In the case of `CCCNC(=O)O[C@H]1CC[C@@H](c2cc(Nc3ccc4c(c3)CCS(=O)(=O)N4)n[nH]2)C1` (relative stereo) [Example 247, cis-3-(3-((2,2-dioxido-3,4-dihydro-1H-benzo[c][1,2]thiazin-6-yl)amino)-1H-pyrazol-5-yl)cyclopentyl propylcarbamate], the figures for the IC50 in experiment [1] and in experiment [2] were 9.7 nM and 79 nM, respectively.

For `CC[C@H](C)NC(=O)O[C@H]1CC[C@@H](c2cc(Nc3ccc4c(c3)CCS(=O)(=O)N4)n[nH]2)C1` (relative stereo) [Example 248, cis-3-(3-((2,2-dioxido-3,4-dihydro-1H-benzo[c][1,2]thiazin-6-yl)amino)-1H-pyrazol-5-yl)cyclopentyl((S)-sec-butyl)carbamate], the values for the IC50 in experiment [1] and in experiment [2] were 2.6 nM and 49 nM, respectively.

`CC(C)NC(=O)O[C@H]1CC[C@@H](c2cc(Nc3ccc4c(c3)CCS(=O)(=O)N4C)n[nH]2)C1` (relative stereo) [Example 250, cis-3-(3-((1-methyl-2,2-dioxido-3,4-dihydro-1H-benzo[c][1,2]thiazin-6-yl)amino)-1H-pyrazol-5-yl)cyclopentyl isopropylcarbamate]: the IC50 was determined as 2.1 nM in experiment [1] and 30 nM in experiment [2].

As to `COCCN1c2ccc(Nc3cc([C@@H]4CC[C@H](OC(=O)NC(C)C)C4)[nH]n3)c(F)c2CS1(=O)=O` (relative stereo) [Example 252, cis-3-(3-((4-fluoro-1-(2-methoxyethyl)-2,2-dioxido-1,3-dihydrobenzo[c]isothiazol-5-yl)cyclopentyl isopropylcarbamate], the IC50 in experiment [1] came out at 3.8 nM; in experiment [2], 79 nM.

As for `CC(C)NC(=O)O[C@H]1CC[C@@H](c2cc(Nc3ccc4c(c3F)C(CCO)S(=O)(=O)N4CCO)n[nH]2)C1` (relative stereo) [Example 253, cis-3-(3-((4-fluoro-1,3-bis(2-hydroxyethyl)-2,2-dioxido-1,3-dihydrobenzo[c]isothiazol-5-yl)amino)-1H-pyrazol-5-yl)cyclopentyl isopropylcarbamate], the half-maximal inhibitory concentration (IC50) came out at 4.3 nM in experiment [1] and 96 nM in experiment [2].

As for `CN1c2ccc(Nc3cc([C@@H]4CC[C@H](OC(=O)NC5(C)CC5)C4)[nH]n3)c(F)c2CS1(=O)=O` (relative stereo) [Example 257, cis-3-(3-((4-fluoro-1-methyl-2,2-dioxido-1,3-dihydrobenzo[c]isothiazol-5-yl)amino)-1H-pyrazol-5-yl)cyclopentyl(1-methylcyclopropyl)carbamate], the values for the IC50 in experiment [1] and in experiment [2] were 1.5 nM and 33 nM, respectively.
